Measured values taken from ChEMBL document CHEMBL1201862, “PubChem BioAssay data set” (2004).
Active and inactive are the calls of the source.

What was measured:
Bcl-2-like protein 10 = molecular target: T1, Bcl-2-like protein 10 (Homo sapiens, UniProt Q9HD36); assay: displacers of TR3 peptide from Bcl-B, primary screen, selectivity assay for Bfl-1 inhibitor project, biochemical, fluorescence polarization, FITC-TR3 peptide (AID 748);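 note: fluorescence polarization from a fluorescein-labelled TR3 peptide binding purified Bcl-B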
T1 sequence (Q9HD36 whole entry): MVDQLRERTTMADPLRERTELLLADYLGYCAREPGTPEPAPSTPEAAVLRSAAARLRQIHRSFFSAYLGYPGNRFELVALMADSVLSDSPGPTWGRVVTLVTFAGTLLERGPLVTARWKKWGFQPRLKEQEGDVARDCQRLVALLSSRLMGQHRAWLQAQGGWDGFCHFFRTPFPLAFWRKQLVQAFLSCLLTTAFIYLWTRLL

Cytochrome P450 2D6 = Cytochrome P450 2D6 (Homo sapiens, UniProt P10635);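 note: CYP2D6 member of a cytochrome P450 panel assay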
Sequence of Cytochrome P450 2D6 (P10635 whole entry): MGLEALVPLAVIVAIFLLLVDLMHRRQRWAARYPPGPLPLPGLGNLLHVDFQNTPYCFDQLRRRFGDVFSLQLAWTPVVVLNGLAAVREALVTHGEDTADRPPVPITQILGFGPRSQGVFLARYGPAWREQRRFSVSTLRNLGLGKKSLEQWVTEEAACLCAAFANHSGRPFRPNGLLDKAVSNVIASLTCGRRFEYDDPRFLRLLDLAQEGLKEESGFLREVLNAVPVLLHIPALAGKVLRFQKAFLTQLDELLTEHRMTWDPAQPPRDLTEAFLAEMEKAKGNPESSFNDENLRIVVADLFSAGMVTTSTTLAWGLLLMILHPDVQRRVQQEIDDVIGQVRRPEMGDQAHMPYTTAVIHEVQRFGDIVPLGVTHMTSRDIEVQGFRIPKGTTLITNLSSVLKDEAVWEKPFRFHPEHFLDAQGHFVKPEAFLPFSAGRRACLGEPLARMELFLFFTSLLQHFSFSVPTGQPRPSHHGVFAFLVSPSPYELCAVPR

Cytochrome P450 3A4 [1] = molecular target: T2, Cytochrome P450 3A4 (Homo sapiens, UniProt P08684); conditions: Potency
T2 sequence (P08684 whole entry): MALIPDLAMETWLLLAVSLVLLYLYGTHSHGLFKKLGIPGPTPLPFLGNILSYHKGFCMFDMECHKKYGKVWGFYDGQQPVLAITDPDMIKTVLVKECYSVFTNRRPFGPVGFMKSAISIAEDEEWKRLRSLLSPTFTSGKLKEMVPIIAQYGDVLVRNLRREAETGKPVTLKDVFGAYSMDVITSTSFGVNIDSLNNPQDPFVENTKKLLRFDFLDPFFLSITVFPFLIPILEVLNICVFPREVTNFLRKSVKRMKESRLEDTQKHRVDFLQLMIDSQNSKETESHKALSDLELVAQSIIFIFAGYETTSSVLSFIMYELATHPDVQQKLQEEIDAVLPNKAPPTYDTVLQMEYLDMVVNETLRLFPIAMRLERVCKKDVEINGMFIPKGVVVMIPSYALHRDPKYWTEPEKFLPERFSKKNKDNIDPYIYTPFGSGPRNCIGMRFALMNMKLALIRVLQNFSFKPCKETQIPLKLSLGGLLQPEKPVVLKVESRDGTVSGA

Large T antigen = Large T antigen (Simian virus 40, UniProt P03070); assay type: functional, Betapolyomavirus macacae;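 note: Confirmatory-stage PubChem screen for compounds that inhibit SV40 T antigen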
Sequence of Large T antigen (P03070 whole entry): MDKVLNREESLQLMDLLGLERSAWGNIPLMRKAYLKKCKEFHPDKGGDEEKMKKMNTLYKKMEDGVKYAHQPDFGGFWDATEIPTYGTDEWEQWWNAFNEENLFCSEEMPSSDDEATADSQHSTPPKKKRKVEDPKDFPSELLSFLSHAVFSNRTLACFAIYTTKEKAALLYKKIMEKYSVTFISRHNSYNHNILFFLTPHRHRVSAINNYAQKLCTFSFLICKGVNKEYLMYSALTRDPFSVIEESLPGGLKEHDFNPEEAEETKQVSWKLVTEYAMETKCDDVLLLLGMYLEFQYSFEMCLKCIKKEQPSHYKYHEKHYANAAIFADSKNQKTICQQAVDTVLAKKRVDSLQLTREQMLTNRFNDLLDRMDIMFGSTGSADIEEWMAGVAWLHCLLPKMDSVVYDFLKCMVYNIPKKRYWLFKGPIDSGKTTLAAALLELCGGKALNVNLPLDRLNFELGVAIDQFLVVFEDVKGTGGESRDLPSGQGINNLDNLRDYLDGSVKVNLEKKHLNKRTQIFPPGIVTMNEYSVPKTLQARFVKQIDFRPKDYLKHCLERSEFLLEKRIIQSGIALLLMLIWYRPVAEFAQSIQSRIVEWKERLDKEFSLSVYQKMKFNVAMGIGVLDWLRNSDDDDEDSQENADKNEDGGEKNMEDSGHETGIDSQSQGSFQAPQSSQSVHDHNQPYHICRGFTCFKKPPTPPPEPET

Cytochrome P450 1A2 = molecular target: T3, Cytochrome P450 1A2 (Homo sapiens, UniProt P05177);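 note: PubChem cytochrome P450 panel assay, CYP1A2 panel member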
T3 sequence (P05177 whole entry): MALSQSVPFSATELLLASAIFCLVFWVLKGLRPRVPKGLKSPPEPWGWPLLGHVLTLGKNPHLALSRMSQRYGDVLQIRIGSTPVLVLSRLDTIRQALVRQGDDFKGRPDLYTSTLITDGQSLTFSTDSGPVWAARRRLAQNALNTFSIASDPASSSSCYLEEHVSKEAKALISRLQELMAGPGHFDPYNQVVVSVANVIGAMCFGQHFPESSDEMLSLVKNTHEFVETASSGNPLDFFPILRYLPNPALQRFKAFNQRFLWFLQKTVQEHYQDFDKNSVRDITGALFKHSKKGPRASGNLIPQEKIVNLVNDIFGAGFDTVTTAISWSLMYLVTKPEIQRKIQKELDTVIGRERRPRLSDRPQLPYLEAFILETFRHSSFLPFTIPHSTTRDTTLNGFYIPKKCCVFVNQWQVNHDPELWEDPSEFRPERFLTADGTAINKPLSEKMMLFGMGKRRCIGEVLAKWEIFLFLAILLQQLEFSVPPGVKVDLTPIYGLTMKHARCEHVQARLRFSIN

Cytochrome P450 3A4 [2] = molecular target: T2, Cytochrome P450 3A4
[3] = molecular target: T4, Mannose-6-phosphate isomerase (Homo sapiens, UniProt P34949); assay: PMI enzyme inhibitors, confirmation, biochemical, fluorescence intensity (AID 1535)
T4 sequence (P34949 whole entry): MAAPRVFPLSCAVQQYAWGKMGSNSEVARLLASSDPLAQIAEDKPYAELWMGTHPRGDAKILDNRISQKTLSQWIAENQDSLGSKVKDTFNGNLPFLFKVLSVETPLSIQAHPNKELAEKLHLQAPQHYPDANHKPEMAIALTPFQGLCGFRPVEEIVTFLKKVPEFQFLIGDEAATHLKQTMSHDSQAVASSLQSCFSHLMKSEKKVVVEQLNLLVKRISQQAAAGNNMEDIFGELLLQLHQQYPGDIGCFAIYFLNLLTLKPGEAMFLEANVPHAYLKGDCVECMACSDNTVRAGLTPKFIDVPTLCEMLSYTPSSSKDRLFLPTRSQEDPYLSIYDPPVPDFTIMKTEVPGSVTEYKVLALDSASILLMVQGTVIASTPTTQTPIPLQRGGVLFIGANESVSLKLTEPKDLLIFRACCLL

Phosphomannomutase 2 = molecular target: T5, Phosphomannomutase 2 (Homo sapiens, UniProt O15305); assay: Counter screen SAR assay for PMM2 inhibitors via a fluorescence intensity assay. [Related pubchem assays (depositor defined):AID1545, AID1574]
T5 sequence (O15305 whole entry): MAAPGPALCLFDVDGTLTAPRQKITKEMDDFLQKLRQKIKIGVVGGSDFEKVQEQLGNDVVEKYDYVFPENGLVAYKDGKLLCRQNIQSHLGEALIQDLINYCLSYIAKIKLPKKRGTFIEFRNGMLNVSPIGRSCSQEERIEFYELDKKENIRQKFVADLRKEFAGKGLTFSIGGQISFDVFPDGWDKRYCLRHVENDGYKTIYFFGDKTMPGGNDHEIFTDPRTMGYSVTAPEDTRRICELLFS

[4] = Luminescence Cell-Based Dose Response to Identify Activators of Luciferase Translation or Activity in H4-C Neuroglioblastoma Cells. [Related pubchem assays: 1829 (Project Summary), 1814 (Primary HTS)]; assay type: functional
[5] = HeLa cell cytotoxicity, dose response, cytotoxicity control for MgcRacGAP inhibitor project (AID 624300); assay type: functional
[6] = Luminescence Cell-Based Dose Confirmation to Identify Activators of 5'UTR Stem-Loop Driven Alpha-Synuclein mRNA Translation in H4 Neuroglioblastoma Cells. [Related pubchem assays: 1829 (Project Summary), 1814 (Primary HTS)]; assay type: functional
[7] = Luminescence Cell-Based Dose Response to Identify Activators of 5'UTR Stem-Loop Driven Prion Protein mRNA Translation in H4-C Neuroglioblastoma Cells. [Related pubchem assays: 1829 (Project Summary), 1814 (Primary HTS)]; assay type: functional
[8] = Luminescence Cell-Based Dose Response HTS to Identify Activators of Luciferase Translation or Activity in H4 […] Cells. [Related pubchem assays: 1829 (Project Summary), 1814 (Primary HTS)]; assay type: functional
[9] = molecular target: T6, Rac GTPase-activating protein 1 (Homo sapiens, UniProt Q9H0H5); assay: MgcRacGAP GTPase-activating activity inhibitors, confirmation, biochemical, ADP Hunter fluorescence, primary and confirmatory (AID 624330); assay type: functional
T6 sequence (Q9H0H5 whole entry): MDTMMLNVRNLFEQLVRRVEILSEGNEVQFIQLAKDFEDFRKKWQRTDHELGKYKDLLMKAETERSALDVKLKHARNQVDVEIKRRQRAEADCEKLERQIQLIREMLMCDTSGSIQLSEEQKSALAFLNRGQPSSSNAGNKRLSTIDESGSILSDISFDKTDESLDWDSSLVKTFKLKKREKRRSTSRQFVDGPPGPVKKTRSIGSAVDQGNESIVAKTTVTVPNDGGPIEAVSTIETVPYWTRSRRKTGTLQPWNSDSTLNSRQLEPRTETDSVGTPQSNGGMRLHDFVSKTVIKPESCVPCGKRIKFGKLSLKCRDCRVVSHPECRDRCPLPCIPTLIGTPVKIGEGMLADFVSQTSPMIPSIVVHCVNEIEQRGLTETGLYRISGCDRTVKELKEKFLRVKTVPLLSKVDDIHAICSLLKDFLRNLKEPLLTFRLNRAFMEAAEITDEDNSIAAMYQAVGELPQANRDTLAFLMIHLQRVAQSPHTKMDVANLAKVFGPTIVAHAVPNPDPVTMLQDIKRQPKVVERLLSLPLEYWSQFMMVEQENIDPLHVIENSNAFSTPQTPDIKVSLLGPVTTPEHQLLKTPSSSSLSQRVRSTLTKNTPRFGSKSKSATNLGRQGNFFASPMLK

HeLa = assay: HeLa cell cytotoxicity, dose response, cytotoxicity control, 24 h, cherry-picked samples (AID 504726); assay type: functional, cell-based; conditions: Homo sapiens;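 note: potency for cytotoxicity as loss of luminescence signal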
H4 = assay: Luminescence Cell-Based Dose Response HTS to Identify Activators of 5'UTR Stem-Loop Driven Prion Protein mRNA Translation in H4 Neuroglioblastoma Cells. [Related pubchem assays: 1829 (Project Summary), 1814 (Primary HTS)]; assay type: functional; conditions: Homo sapiens
[10] = A cytotoxicity screen of small molecule inhibitors of the PhoP region in Salmonella typhi identified in the primary screen. [Related pubchem assays: 1850, 1864, 1985 ]; assay type: functional
[11] = molecular target: T7, Carboxy-terminal domain RNA polymerase II polypeptide A small phosphatase 1 (Homo sapiens, UniProt Q9GZU7); assay: inhibitors of CTDSP1, concentration-response testing, biochemical assay, absorbance-based, actives from ultra-high-throughput screening (AID 540297); assay type: functional
T7 sequence (Q9GZU7 whole entry): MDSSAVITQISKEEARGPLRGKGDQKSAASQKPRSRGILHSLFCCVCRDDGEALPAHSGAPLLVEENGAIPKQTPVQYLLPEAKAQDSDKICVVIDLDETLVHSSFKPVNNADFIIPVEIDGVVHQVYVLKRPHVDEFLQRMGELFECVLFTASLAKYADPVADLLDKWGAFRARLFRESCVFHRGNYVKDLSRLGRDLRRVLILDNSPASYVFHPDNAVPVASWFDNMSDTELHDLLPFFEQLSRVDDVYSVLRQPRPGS

[12] = Luminescence Cell-Based Dose Confirmation HTS to Identify Activators of 5'UTR Stem-Loop Driven Alpha-Synuclein mRNA Translation in H4 Neuroglioblastoma Cells. [Related pubchem assays: 1829 (Project Summary), 1814 (Primary HTS)]; assay type: functional
Troponin, cardiac muscle = Troponin, cardiac muscle (Homo sapiens, UniProt P19429+P45379+P63316); assay: Fluorescence-based biochemical high throughput dose response assay for activators of the calcium sensitivity of cardiac Regulated Thin Filaments (RTF). [Related pubchem assays (depositor defined):AID493008, AID493018, AID504382, AID504383]; assay type: protein-complex assay
Estrogen receptor beta [13] = molecular target: T8, Estrogen receptor beta (Homo sapiens, UniProt Q92731);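 note: recombinant ER-beta bound to coactivator SRC1 peptide in presence of estradiol agonist; inhibitors block coactivator peptide binding and lower the FRET signal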
T8 sequence (Q92731 whole entry): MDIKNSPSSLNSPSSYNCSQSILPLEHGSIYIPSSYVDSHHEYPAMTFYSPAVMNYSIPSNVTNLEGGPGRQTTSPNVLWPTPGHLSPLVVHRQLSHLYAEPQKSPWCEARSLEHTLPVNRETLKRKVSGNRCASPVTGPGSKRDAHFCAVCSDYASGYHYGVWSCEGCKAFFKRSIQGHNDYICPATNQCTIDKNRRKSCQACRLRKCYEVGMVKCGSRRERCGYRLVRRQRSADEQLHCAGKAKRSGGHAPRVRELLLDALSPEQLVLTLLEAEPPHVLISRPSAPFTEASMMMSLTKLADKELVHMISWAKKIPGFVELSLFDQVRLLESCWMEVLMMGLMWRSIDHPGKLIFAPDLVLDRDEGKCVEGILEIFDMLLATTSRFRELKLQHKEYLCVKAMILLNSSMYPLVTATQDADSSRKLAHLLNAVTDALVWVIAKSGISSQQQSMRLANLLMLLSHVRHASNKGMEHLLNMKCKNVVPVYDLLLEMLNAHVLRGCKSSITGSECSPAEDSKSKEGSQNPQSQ

Estrogen receptor beta [14] = molecular target: T8, Estrogen receptor beta; assay: ERβ–SRC-3 coactivator interaction inhibitors, confirmation, orthogonal assay, biochemical, ELISA, streptavidin-HRP readout (AID 1060)

COc1ccc(NC(=O)c2cnn3c(C(F)(F)F)cc(-c4ccco4)nc23)cc1OC
IC50 (Bcl-2-like protein 10): 66.8 µM (inactive)

CC(=O)NCCc1c[nH]c2ccc(O)cc12 [ACETYLSEROTONIN]
AC50 (Cytochrome P450 2D6): 15.8 µM (inconclusive) | AC50 (Cytochrome P450 3A4 [1]): 25.1 µM (inconclusive) | IC50 (Large T antigen): 21.7 µM (active) | AC50 (Cytochrome P450 1A2): 15.8 µM (inconclusive) | AC50 (Cytochrome P450 3A4 [2]): 7.94 µM (inconclusive)

CS(=O)(=O)c1ccc2nc(-n3sc4ccccc4c3=O)sc2c1
IC50 [3]: > 50 µM (inactive) | IC50 (Phosphomannomutase 2): > 100 µM (inactive)

CN(C)c1ccc(NC(=O)c2sc(SCC(=O)Nc3nccs3)nc2N)cc1
EC50 [4]: 0.575 µM (active) | CC50 [5]: 100 µM (active) | EC50 [6]: 0.236 µM (active) | EC50 [7]: 1.28 µM (active) | EC50 [8]: < 0.1 µM (active) | IC50 [9]: 107 µM (active)

COc1cccc(COC(=O)Nc2ccccc2F)c1
EC50 [4]: 0.344 µM (active) | EC50 [6]: 0.456 µM (active) | EC50 [7]: 0.301 µM (active) | EC50 [8]: < 0.1 µM (inconclusive)

CC(C)N(C(S)=Nc1cccnc1)c1ccccc1
AC50 (HeLa): > 350 µM (inactive)

Cc1cnc(/N=c2\ssnc2Cl)cn1
IC50 [3]: > 100 µM (inactive)

O=C(NCc1ccccc1)c1cccc(COc2ccc(Cl)cc2)c1
EC50 [4]: > 12 µM (not active) | EC50 (H4): > 120 µM (not active) | EC50 [6]: 0.261 µM (active) | EC50 [7]: > 12 µM (not active) | EC50 [8]: < 0.1 µM (active)

CC(=O)NC(=NOCc1ccc(Br)cc1)c1nonc1NC(C)=O
AC50 (HeLa): > 350 µM (inactive)

CCN(Cc1ccccc1)S(=O)(=O)c1cc2nc(O)c(O)nc2cc1C
AC50 (HeLa): > 350 µM (inactive)

CC(C)[C@H](NC(=O)c1ccccc1F)C(=O)NC1CCCCCCC1
AC50 (HeLa): 135 µM (active)

Cc1cc2n(n1)SC(Nc1ccc(F)cc1)N2 (centres undefined)
IC50 [3]: > 50 µM (inactive) | IC50 (Phosphomannomutase 2): > 100 µM (inactive)

CCCCCC(=O)NNC(=S)NC(C)=O
EC50 [10]: > 50 µM (active)

COc1ccccc1-c1nn2c(-c3ccco3)nnc2s1
IC50 [11]: 12 µM (active) | EC50 [4]: 0.431 µM (active) | EC50 [12]: 0.129 µM (active) | EC50 (H4): 14.9 µM (active) | EC50 [6]: 0.613 µM (active) | EC50 [7]: 1.27 µM (active) | EC50 [8]: < 0.1 µM (active)

COCCN1CCn2c(nc3cc(NC(=O)NC4CCCCC4)ccc32)C1
IC50 (Bcl-2-like protein 10): > 12.5 µM (inactive)

COc1ccccc1NC(=O)COC(=O)c1cnc(C)cn1
EC50 (Troponin, cardiac muscle): > 71.5 µM (inactive)

O=c1c(O)c(-c2ccccc2)oc2cc(O)ccc12 [3,7-DIHYDROXYFLAVONE]
AC50 (Cytochrome P450 3A4 [1]): 39.8 µM (inconclusive)

CCc1ccc(NC2=NCCCS2)cc1
EC50 [10]: > 50 µM (active)

Cc1ccc(OCc2nnc(NC(=O)c3cccnc3)s2)cc1
EC50 [10]: > 50 µM (active)

O=C(NCc1nnc(SCC(=O)N2CCCCCC2)o1)c1ccco1
EC50 (Troponin, cardiac muscle): > 71.5 µM (inactive)

CNS(=O)(=O)c1ccc(N/C=C2/C(=O)NC(=O)N(c3ccccc3)C2=O)cc1
EC50 (Troponin, cardiac muscle): > 71.5 µM (inactive)

CCOc1ccc(C(=O)OCC(=O)NCc2ccco2)cc1OCC
IC50 (Estrogen receptor beta [13]): > 50 µM (not active) | IC50 (Bcl-2-like protein 10): > 100 µM (inactive) | IC50 (Estrogen receptor beta [14]): 0.113 µM (not active)

CC(C)C1=CC2=CCC3[C@@](C)(CCC[C@@]3(C)C(=O)O)C2CC1 (some centres undefined)
AC50 (Cytochrome P450 3A4 [1]): 39.8 µM (inconclusive)
